Results: patent US10703764B2, “Benzopiperazine compositions as BET bromodomain inhibitors” (FORMA Therapeutics, Inc., priority 2013, dated 2020)

Tests used:
[1] = biological target: T1, BRD4 BD1 (Homo sapiens, UniProt O60885); assay: AlphaScreen binding assay, BRD4 Bromodomain 1
T1 construct: made in house
Outline: (§1)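 An AlphaScreen competition format was used with His-BRD4 BD1 or BD2 and biotin-H4 K5/8/12/16-acetyl peptide, each at matched final levels of 50 nM (BD1) or 100 nM (BD2). Incubation in HEPES/NaCl buffer with 0.1% BSA and 0.01% Triton X-100 ran ≥1 h before IC50 determination.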

[2] = biological target: T2, BRD4 BD2 (Homo sapiens, UniProt O60885); assay: AlphaScreen binding assay, BRD4 Bromodomain 2
T2 construct: made in house
Outline: as §1

[3] = system: MV4-11 cells; assay: Oncology cell growth assay (3-day proliferation, CellTiter-Glo); assay type: cell-based; conditions: Homo sapiens, MV4-11, 72 h, AML cell line MV4-11, 72 hours, compounds grouped by IC50 range, read-out: MV4-11 IC50 (inhibition of proliferation, gIC50)
Outline: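 Luminescence from CellTiter-Glo served as the growth read-out after MV4-11 cells (3000/well) were cultured with compound for 72 hours. Final concentrations spanned 10 to 0.0045 μM in 3-fold steps. gIC50 values were derived by four-parameter logistic fitting relative to DMSO and cell-free controls.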

SMILES | IC50 [1] [nM] | IC50 [2] [nM] | IC50 [3] [nM]
CC(=O)N1c2ccc(-c3cc(Cl)cc(S(C)(=O)=O)c3)cc2N(C(=O)C2CCC2)C[C@@H]1C [Example I-1095] | 1000 to 10000 | > 500 | > 500
CCOC(=O)N1C[C@H](C)N(C(C)=O)c2ccc(-c3cc(Cl)cc(S(C)(=O)=O)c3)cc21 [Example I-1096] | 1000 to 10000 | > 500 | > 500
CC(=O)N1c2ccc(-c3cc(Cl)cc(S(C)(=O)=O)c3)cc2N(C(=O)OC(C)C)C[C@@H]1C [Example I-1097] | 1000 to 10000 | > 500 | > 500
CC(=O)N1c2ccc(-c3ccc(F)c(S(C)(=O)=O)c3)cc2N(C(=O)C2CC2)C[C@@H]1C [Example I-1098] | 1000 to 10000 | 50 to 500 | > 500
CC(=O)N1c2ccc(-c3ccc(F)c(S(C)(=O)=O)c3)cc2N(C(=O)C2CCC2)C[C@@H]1C [Example I-1099] | 1000 to 10000 | 50 to 500 | > 500
CCOC(=O)N1C[C@H](C)N(C(C)=O)c2ccc(-c3ccc(F)c(S(C)(=O)=O)c3)cc21 [Example I-1100] | 1000 to 10000 | 50 to 500 | > 500
CC(=O)N1c2ccc(-c3ccc(F)c(S(C)(=O)=O)c3)cc2N(C(=O)OC(C)C)C[C@@H]1C [Example I-1101] | 1000 to 10000 | 50 to 500 | > 500
CCOC(=O)N1C[C@H](C)N(C(C)=O)c2ccc(-c3ccc(OCCS(C)(=O)=O)cc3)cc21 [Example I-1102] | 100 to 1000 | 50 to 500 | > 500
CC(=O)N1c2ccc(-c3ccc(OCCS(C)(=O)=O)cc3)cc2N(C(=O)OC(C)C)C[C@@H]1C [Example I-1103] | 100 to 1000 | 50 to 500 | > 500
CNS(=O)(=O)c1cccc(-c2ccc3c(c2)N(C(=O)C2CC2)C[C@H](C)N3C(C)=O)c1 [Example I-1104] | 1000 to 10000 | 50 to 500 | 100 to 500
CNS(=O)(=O)c1cccc(-c2ccc3c(c2)N(C(=O)C2CCC2)C[C@H](C)N3C(C)=O)c1 [Example I-1105] | 1000 to 10000 | 50 to 500 | > 500
CCOC(=O)N1C[C@H](C)N(C(C)=O)c2ccc(-c3cccc(S(=O)(=O)NC)c3)cc21 [Example I-1106] | 1000 to 10000 | 50 to 500 | 100 to 500
CNS(=O)(=O)c1cccc(-c2ccc3c(c2)N(C(=O)OC(C)C)C[C@H](C)N3C(C)=O)c1 [Example I-1107] | 100 to 1000 | 50 to 500 | 100 to 500
CC(=O)N1c2ccc(-c3cccc(S(=O)(=O)NCCO)c3)cc2N(C(=O)C2CC2)C[C@@H]1C [Example I-1108] | 1000 to 10000 | 50 to 500 | 100 to 500
CC(=O)N1c2ccc(-c3cccc(S(=O)(=O)NCCO)c3)cc2N(C(=O)C2CCC2)C[C@@H]1C [Example I-1109] | 1000 to 10000 | 50 to 500 | > 500
CCOC(=O)N1C[C@H](C)N(C(C)=O)c2ccc(-c3cccc(S(=O)(=O)NCCO)c3)cc21 [Example I-1110] | 1000 to 10000 | 50 to 500 | 100 to 500
CC(=O)N1c2ccc(-c3cccc(S(=O)(=O)NCCO)c3)cc2N(C(=O)OC(C)C)C[C@@H]1C [Example I-1111] | 100 to 1000 | 50 to 500 | 100 to 500
CCN(CC)S(=O)(=O)c1cc(-c2ccc3c(c2)N(C(=O)C2CC2)C[C@H](C)N3C(C)=O)ccc1OC [Example I-1112] | 1000 to 10000 | 50 to 500 | 100 to 500
CCN(CC)S(=O)(=O)c1cc(-c2ccc3c(c2)N(C(=O)C2CCC2)C[C@H](C)N3C(C)=O)ccc1OC [Example I-1113] | 1000 to 10000 | 50 to 500 | 100 to 500
CCOC(=O)N1C[C@H](C)N(C(C)=O)c2ccc(-c3ccc(OC)c(S(=O)(=O)N(CC)CC)c3)cc21 [Example I-1114] | 100 to 1000 | 50 to 500 | > 500

SMILES | IC50 [1] [nM] | IC50 [2] [nM] | IC50 [3] [nM]
CCN(CC)S(=O)(=O)c1cc(-c2ccc3c(c2)N(C(=O)OC(C)C)C[C@H](C)N3C(C)=O)ccc1OC [Example I-1115] | 100 to 1000 | 50 to 500 | 100 to 500
CC(=O)N1c2ccc(-c3ccc(S(=O)(=O)n4cccn4)cc3)cc2N(C(=O)C2CCC2)C[C@@H]1C [Example I-1116] | 1000 to 10000 | 50 to 500 | > 500
CCOC(=O)N1C[C@H](C)N(C(C)=O)c2ccc(-c3ccc(S(=O)(=O)n4cccn4)cc3)cc21 [Example I-1117] | 1000 to 10000 | 50 to 500 | > 500
CC(=O)N1c2ccc(-c3ccc(S(=O)(=O)n4cccn4)cc3)cc2N(C(=O)OC(C)C)C[C@@H]1C [Example I-1118] | 1000 to 10000 | > 500 | > 500
CNS(=O)(=O)c1ccc(-c2ccc3c(c2)N(C(=O)C2CC2)C[C@H](C)N3C(C)=O)cc1 [Example I-1119] | 1000 to 10000 | 50 to 500 | 100 to 500
CNS(=O)(=O)c1ccc(-c2ccc3c(c2)N(C(=O)C2CCC2)C[C@H](C)N3C(C)=O)cc1 [Example I-1120] | 1000 to 10000 | 50 to 500 | 100 to 500
CCOC(=O)N1C[C@H](C)N(C(C)=O)c2ccc(-c3ccc(S(=O)(=O)NC)cc3)cc21 [Example I-1121] | 1000 to 10000 | 50 to 500 | 100 to 500
CNS(=O)(=O)c1ccc(-c2ccc3c(c2)N(C(=O)OC(C)C)C[C@H](C)N3C(C)=O)cc1 [Example I-1122] | 100 to 1000 | 50 to 500 | 100 to 500
CC(=O)N1c2ccc(-c3ccc(S(=O)(=O)N(C)C)cc3)cc2N(C(=O)C2CC2)C[C@@H]1C [Example I-1123] | 1000 to 10000 | 50 to 500 | 100 to 500
CC(=O)N1c2ccc(-c3ccc(S(=O)(=O)N(C)C)cc3)cc2N(C(=O)C2CCC2)C[C@@H]1C [Example I-1124] | 1000 to 10000 | 50 to 500 | 100 to 500
CCOC(=O)N1C[C@H](C)N(C(C)=O)c2ccc(-c3ccc(S(=O)(=O)N(C)C)cc3)cc21 [Example I-1125] | 1000 to 10000 | 50 to 500 | 100 to 500
CC(=O)N1c2ccc(-c3ccc(S(=O)(=O)N(C)C)cc3)cc2N(C(=O)OC(C)C)C[C@@H]1C [Example I-1126] | 1000 to 10000 | 50 to 500 | 100 to 500
CC(=O)N1c2ccc(-c3ccc(S(=O)(=O)NC(C)(C)C)cc3)cc2N(C(=O)C2CC2)C[C@@H]1C [Example I-1127] | 1000 to 10000 | 50 to 500 | 100 to 500
CC(=O)N1c2ccc(-c3ccc(S(=O)(=O)NC(C)(C)C)cc3)cc2N(C(=O)C2CCC2)C[C@@H]1C [Example I-1128] | 1000 to 10000 | 50 to 500 | 100 to 500
CCOC(=O)N1C[C@H](C)N(C(C)=O)c2ccc(-c3ccc(S(=O)(=O)NC(C)(C)C)cc3)cc21 [Example I-1129] | 1000 to 10000 | 50 to 500 | 100 to 500
CC(=O)N1c2ccc(-c3ccc(S(=O)(=O)NC(C)(C)C)cc3)cc2N(C(=O)OC(C)C)C[C@@H]1C [Example I-1130] | 100 to 1000 | 50 to 500 | 100 to 500
CC(=O)N1c2ccc(-c3ccc(N4CCCC4=O)cc3)cc2N(C(=O)C2CC2)C[C@@H]1C [Example I-1131] | 1000 to 10000 | 50 to 500 | 100 to 500
CC(=O)N1c2ccc(-c3ccc(N4CCCC4=O)cc3)cc2N(C(=O)C2CCC2)C[C@@H]1C [Example I-1132] | 1000 to 10000 | 50 to 500 | 100 to 500
CCOC(=O)N1C[C@H](C)N(C(C)=O)c2ccc(-c3ccc(N4CCCC4=O)cc3)cc21 [Example I-1133] | 1000 to 10000 | 50 to 500 | 100 to 500
CC(=O)N1c2ccc(-c3ccc(N4CCCC4=O)cc3)cc2N(C(=O)OC(C)C)C[C@@H]1C [Example I-1134] | 100 to 1000 | 50 to 500 | 100 to 500
